“Also recorded” adds a separate entry of the source. Structures can show the parent of a compound that is named as a salt. Where two headings read alike, the source gives them in different places.
How the values were obtained:
[1] = Solubility test in simulated gastric fluid; type: physicochemical; conditions: dihydrochloride; for Solubility: 37° C., after 60 minutes, paddle 250 rpm, free body conversion
Experimental: Solubilities of Crystalline form A and Crystalline form B of Compound (I) in a simulated gastric fluid were measured by the method below (free body conversion).
10 times concentrated Liquid 1 used for the disintegration test of the Japanese Pharmacopoeia (purchased from Kanto Chemical Co., Inc.) was diluted 10-fold with purified water to give a simulated gastric fluid. Approximately 80 mg of the crystalline form for measurement were precisely measured, transferred to a 25 ml volumetric flask, and dissolved in methanol to bring the total volume to 25 ml. 2 ml of the resulting solution were transferred to a 50 ml volumetric flask, and the simulated gastric fluid was added thereto to bring the total volume to 50 ml to give a standard solution.
By using an elution testing machine NTR-6100A (Toyama Sangyo Co., Ltd.), approximately 100 mg of the subject crystalline form were added to 500 ml of the simulated gastric fluid at 37° C., and agitated with a paddle (250 rpm). After 60 minutes, samples were taken from the test solution. The absorbance of the standard solution and test solution samples was measured at 289 nm and 360 nm by using a UV visible spectrophotometer.
weighing amount of the crystalline form used for the preparation of the standard solution (mg): WS;
absorbance of the standard solution at 289 nm: AS289;
absorbance of the standard solution at 360 nm: AS360;
absorbance of the test solution at 289 nm: AT289;
absorbance of the test solution at 360 nm: AT360;
molecular weight of the dihydrochloride monohydrate of Compound (I): 593.52; and
molecular weight of the free body of Compound (I): 502.58

[2] = biological target: T1, peroxisome proliferator-activated receptor (PPAR) γ (Homo sapiens, UniProt P37231); conditions: disclosed in Patent Literature 1-5; cited from earlier work
T1 sequence (P37231 1-505): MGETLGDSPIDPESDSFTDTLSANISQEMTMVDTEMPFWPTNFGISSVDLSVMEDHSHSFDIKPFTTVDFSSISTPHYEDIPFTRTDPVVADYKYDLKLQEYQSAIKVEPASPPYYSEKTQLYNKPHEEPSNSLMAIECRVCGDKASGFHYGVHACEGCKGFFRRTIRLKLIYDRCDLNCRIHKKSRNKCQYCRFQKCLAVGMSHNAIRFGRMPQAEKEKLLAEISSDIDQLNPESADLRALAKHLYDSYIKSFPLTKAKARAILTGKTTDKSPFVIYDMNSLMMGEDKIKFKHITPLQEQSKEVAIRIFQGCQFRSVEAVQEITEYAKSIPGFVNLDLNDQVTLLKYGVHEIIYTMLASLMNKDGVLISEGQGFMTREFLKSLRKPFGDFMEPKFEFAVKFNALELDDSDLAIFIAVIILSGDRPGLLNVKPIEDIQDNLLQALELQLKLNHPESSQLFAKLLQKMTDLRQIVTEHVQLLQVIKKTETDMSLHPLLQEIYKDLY

[3] = test system: human stomach cancer cells, human breast cancer cells, small cell lung cancer, pancreas cancer cells, prostate cancer cells, kidney cancer cells …; conditions: Test Example 1 in WO 2007/091622; cited from earlier work
human leukemia cells = conditions: Test Example 2 in WO 2007/091622; cited from earlier work
[4] = test system: human colon cancer cell lines; conditions: Test Example 3 in WO 2007/091622; cited from earlier work
cancer cells = conditions: cited from earlier work
[5] = test system: human non-small cell lung cancer; conditions: Test Example 5, cited from earlier work
human kidney cancer = conditions: Test Example 7, cited from earlier work

Compound: Cc1cc(Oc2ccc3nc(COc4ccc(CC5SC(=O)NC5=O)cc4)n(C)c3c2)cc(C)c1N (single isomer, unassigned) [Crystalline form B, monohydrate of 5-(4-{[6-(4-amino-3,5-dimethylphenoxy)-1-methyl-1-H-benzimidazol-2-yl]methoxy}benzyl)-1,3-thiazolidine-2,4-dione dihydrochloride]
- Solubility [1]: 155.25 µg/mL
- Solubility, assessment in words [1]: sufficient solubility as a pharmaceutical ingredient; also recorded: higher solubility than the Compound (I) which has been known

Compound: Cc1cc(Oc2ccc3nc(COc4ccc(CC5SC(=O)NC5=O)cc4)n(C)c3c2)cc(C)c1N (centres unmarked) [Compound (I), 5-(4-{[6-(4-amino-3,5-dimethylphenoxy)-1-methyl-1-H-benzimidazol-2-yl]methoxy}benzyl)-1,3-thiazolidine-2,4-dione]
- ability of PPARγ activation [2]: significant ability of peroxisome proliferator-activated receptor (PPAR) γ activation

Compound: Cc1cc(Oc2ccc3nc(COc4ccc(CC5SC(=O)NC5=O)cc4)n(C)c3c2)cc(C)c1N (single isomer, unassigned) [Crystalline form A, monohydrate of 5-(4-{[6-(4-amino-3,5-dimethylphenoxy)-1-methyl-1-H-benzimidazol-2-yl]methoxy}benzyl)-1,3-thiazolidine-2,4-dione dihydrochloride]
- Solubility [1]: 76.92 µg/mL
- Solubility, assessment in words [1]: sufficient solubility as a pharmaceutical ingredient

Compound: Cc1cc(Oc2ccc3nc(COc4ccc(CC5SC(=O)NC5=O)cc4)n(C)c3c2)cc(C)c1N (centres unmarked) [dihydrochloride of Compound (I), 5-(4-{[6-(4-amino-3,5-dimethylphenoxy)-1-methyl-1-H-benzimidazol-2-yl]methoxy}benzyl)-1,3-thiazolidine-2,4-dione dihydrochloride]
- activity to suppress proliferation of cancer cells [3]: significant activity to suppress proliferation
- proliferation suppressing activity in human leukemia cells (human leukemia cells): inhibits significantly proliferation suppressing activity
- antitumor activity in vivo [4]: significant antitumor activity
- activity to suppress proliferation in cancer cells, combination (cancer cells; in combination with a VEGFR inhibitor or a Raf kinase inhibitor, Test Example 6): synergetic activity to suppress proliferation
- activity to suppress proliferation in cancer cells, combination (cancer cells; in combination with an epidermal growth factor receptor (EGFR) inhibitor, Test Example 4): synergetic activity to suppress proliferation
- antitumor activity ([5]; alone): exerts an antitumor activity
- antitumor activity, combination ([5]; in combination with an EGFR inhibitor): enhanced antitumor activity
- antitumor activity (human kidney cancer; alone): exerts an antitumor activity
- antitumor activity, combination (human kidney cancer; in combination with a VEGFR inhibitor or a Raf kinase inhibitor): enhanced antitumor activity
